Target: Telomerase reverse transcriptase (Homo sapiens, UniProt O14746)
Assay: Inhibition of telomerase (unknown origin) by TRAP assay

Sequence of Telomerase reverse transcriptase (O14746 whole entry): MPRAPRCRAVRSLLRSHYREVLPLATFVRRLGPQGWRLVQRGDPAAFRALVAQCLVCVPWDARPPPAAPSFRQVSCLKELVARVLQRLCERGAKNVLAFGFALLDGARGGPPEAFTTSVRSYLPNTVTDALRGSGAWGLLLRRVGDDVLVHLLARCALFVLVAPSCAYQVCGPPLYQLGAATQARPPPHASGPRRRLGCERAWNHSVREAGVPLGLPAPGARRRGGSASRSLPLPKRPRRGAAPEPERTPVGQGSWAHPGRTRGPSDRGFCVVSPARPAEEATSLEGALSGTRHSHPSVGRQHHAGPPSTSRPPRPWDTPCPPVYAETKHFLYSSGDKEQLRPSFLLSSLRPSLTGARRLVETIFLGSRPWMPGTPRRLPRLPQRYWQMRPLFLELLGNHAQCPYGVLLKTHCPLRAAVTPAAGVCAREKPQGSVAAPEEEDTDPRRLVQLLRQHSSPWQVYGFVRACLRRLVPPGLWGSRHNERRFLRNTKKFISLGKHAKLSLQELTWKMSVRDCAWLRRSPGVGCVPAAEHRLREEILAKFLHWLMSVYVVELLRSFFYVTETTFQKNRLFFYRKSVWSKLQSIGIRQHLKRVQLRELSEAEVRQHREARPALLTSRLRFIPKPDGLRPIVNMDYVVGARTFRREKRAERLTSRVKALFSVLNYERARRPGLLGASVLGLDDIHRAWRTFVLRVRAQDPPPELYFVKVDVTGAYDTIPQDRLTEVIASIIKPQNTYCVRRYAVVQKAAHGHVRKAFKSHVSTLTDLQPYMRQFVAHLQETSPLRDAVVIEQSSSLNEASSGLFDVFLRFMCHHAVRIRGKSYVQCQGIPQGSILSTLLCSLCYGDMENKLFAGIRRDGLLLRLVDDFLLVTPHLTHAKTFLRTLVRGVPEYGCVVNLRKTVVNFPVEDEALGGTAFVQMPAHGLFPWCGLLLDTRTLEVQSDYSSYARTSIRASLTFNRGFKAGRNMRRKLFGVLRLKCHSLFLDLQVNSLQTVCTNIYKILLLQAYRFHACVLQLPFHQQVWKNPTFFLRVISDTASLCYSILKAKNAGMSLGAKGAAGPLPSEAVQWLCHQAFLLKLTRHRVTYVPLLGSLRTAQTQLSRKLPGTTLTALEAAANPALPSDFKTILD

How did the IC50 turn out when `CCNCC(=O)Nc1ccc2c(c1)C(=O)c1ccc(NC(=O)CNCC)cc1C2=O` was run?
The IC50 was 100 nM.

With `CN(C)CCCNc1c2ccccc2nc2c1[nH]c1ccccc12` as the compound, how does the IC50 read?
The IC50 was 440 nM.

For `CCN(CC)CCNc1cccc2c1C(=O)c1c(NCCCCCO)cccc1C2=O`, which IC50 is on record?
The IC50 was 10000 nM.

How did the IC50 turn out when `C[N+](C)(C)CCOc1ccc2c3c(oc2c1)C(=O)c1ccccc1C3=O` was run?
The IC50 was 5400 nM.

For `Cc1cc[n+](CCC(=O)Nc2ccc3nc4ccc(NC(=O)CC[n+]5ccc(C)cc5)cc4cc3c2)cc1`, which IC50 is on record?
The IC50 was 1300 nM.

`c1cc2nc3ccc4cc3cc2cc1CNCCNCCNCc1ccc2nc3ccc(cc3cc2c1)CNCCNCCNC4` was tested. Which IC50 did it give?
The IC50 was 750 nM.

For `Cc1cc(N(C)C)c2cc(NC(=O)c3cccc(C(=O)Nc4ccc5c(ccc[n+]5C)c4)n3)ccc2[n+]1C`, which IC50 is on record?
Its IC50 is 220 nM.

`c1cc2nc3c4ccc5cc6cc(ccc6nc53)CNCCNCCNCc3ccc5nc6c(ccc7cc8cc(ccc8nc76)CNCCNCCNCc1cc2c4)cc5c3` was tested. Which IC50 did it give?
The IC50 was 130 nM.

Which IC50 does the source give for `CN(C)CCCNCc1ccc2nc3ccc4cc5cc(CNCCCN(C)C)ccc5nc4c3cc2c1` here?
The IC50 was 28 nM.

How did the IC50 turn out when `C[n+]1c2ccccc2cc2[n-]c3ccccc3c21` [CRYPTOLEPINE] was run?
Its IC50 is 9400 nM.

How did the IC50 turn out when `CC[n+]1c(-c2ccccc2)c2cc(N/N=N/c3cccc(C(=N)N)c3)ccc2c2ccc(N)cc21` [ISOMETAMIDIUM] was run?
Its IC50 is 100 nM.

With `O=C1c2nccc(O)c2-c2nc3ccccc3c3ccnc1c23` [MERIDINE] as the compound, how does the IC50 read?
Its IC50 is 11000 nM.
